Experimental findings from patent US12497365B2, “4-pyridinyl formamide compound or derivative thereof, preparation method therefor, herbicidal composition and use thereof” (Qingdao Kingagroot Chemical Compound Co., Ltd., priority 2019, dated 2025) are described below.

Assay in all cases: Weeding effect in post-emergence stage
Common to all, as to type: in vivo
What all share (settings): active ingredient 2000 g/ha, 3 weeks after application, fresh weight control rate

One assay deals with Abutilon theophrasti. A digest of the protocol:
(§1)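 Post-emergence spray, 2-3 leaf stage; acetone/Tween 80 formulation + methyl oleate EC synergist (1.5 liter/ha); 125-2000 g/ha via spray tower. Greenhouse, 3 wk. Read-out: fresh weight growth control rate, graded by activity level.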

The subject of assay [1] is Amaranthus retroflexus L. A digest of the protocol: as §1
A further assay deals with Chenopodium album. A digest of the protocol:
as §1

In a further assay the test system is Descurainia sophia. A digest of the protocol: as §1

Take `Cc1ccc(-c2nccc(C(=O)Nc3nnnn3C)c2Cl)s1` [Compound 1-187]: in the assay on Abutilon theophrasti, the “Weeding effect, activity level (growth control rate), Abutilon theophrasti” value (shortened to “Weeding effect … Abutilon theophrasti”) is given as 5 (Level 5: growth control rate is above 85%). Further, the “Weeding effect, activity level (growth control rate), Amaranthus retroflexus L.” value (shortened to “Weeding effect … Amaranthus retroflexus L.”) in assay [1] is 5 (Level 5: growth control rate is above 85%). Also, the “Weeding effect, activity level (growth control rate), Chenopodium album” value (“Weeding effect … Chenopodium album” below) in the assay with Chenopodium album is 5 (Level 5: growth control rate is above 85%). Further, the “Weeding effect, activity level (growth control rate), Descurainia sophia” value (from here on “Weeding effect … Descurainia sophia”) with Descurainia sophia is reported as 5 (Level 5: growth control rate is above 85%).

In the case of `CSc1c(C(=O)Nc2nnnn2C)ccnc1-c1ccc(C#N)cc1` [Compound 1-2052], in the assay on Abutilon theophrasti, the “Weeding effect … Abutilon theophrasti” value is on record as 5 (Level 5: growth control rate is above 85%). Also, in assay [1], the “Weeding effect … Amaranthus retroflexus L.” value is reported as 5 (Level 5: growth control rate is above 85%). The “Weeding effect … Chenopodium album” value in the assay with Chenopodium album is on record as 5 (Level 5: growth control rate is above 85%). Also, the “Weeding effect … Descurainia sophia” value with Descurainia sophia is listed as 5 (Level 5: growth control rate is above 85%).

Take `Cn1nc(C(F)(F)F)cc1-c1nccc(C(=O)Nc2nnnn2C)c1Cl` [Compound 1-180]: the “Weeding effect … Abutilon theophrasti” value in the assay on Abutilon theophrasti is reported as 5 (Level 5: growth control rate is above 85%). Besides, the “Weeding effect … Amaranthus retroflexus L.” value in assay [1] is listed as 5 (Level 5: growth control rate is above 85%). Further, the “Weeding effect … Chenopodium album” value with Chenopodium album is listed as 5 (Level 5: growth control rate is above 85%). Also, the “Weeding effect … Descurainia sophia” value in the assay on Descurainia sophia is given as 5 (Level 5: growth control rate is above 85%).

Regarding `Cn1nnnc1NC(=O)c1ccnc(OCc2ccccc2)c1Cl` [Compound 1-2064], the “Weeding effect … Abutilon theophrasti” value with Abutilon theophrasti is listed as 5 (Level 5: growth control rate is above 85%). The “Weeding effect … Amaranthus retroflexus L.” value in assay [1] is on record as 5 (Level 5: growth control rate is above 85%). The “Weeding effect … Chenopodium album” value in the assay with Chenopodium album is listed as 5 (Level 5: growth control rate is above 85%). In addition, in the assay on Descurainia sophia, the “Weeding effect … Descurainia sophia” value is reported as 5 (Level 5: growth control rate is above 85%).

For the compound `COc1c(Cl)ccc(-c2nccc(C(=O)Nc3nnnn3C)c2Cl)c1F` [Compound 1-110], the “Weeding effect … Abutilon theophrasti” value in the assay on Abutilon theophrasti was 5 (Level 5: growth control rate is above 85%). Besides, the “Weeding effect … Amaranthus retroflexus L.” value in assay [1] is on record as 5 (Level 5: growth control rate is above 85%). Further, in the assay with Chenopodium album, the “Weeding effect … Chenopodium album” value is recorded as 5 (Level 5: growth control rate is above 85%). For the same compound, the “Weeding effect … Descurainia sophia” value in the assay on Descurainia sophia was 5 (Level 5: growth control rate is above 85%).

For the compound `Cn1nnnc1NC(=O)c1ccnc(-c2ccc(Oc3ccccc3)c(Cl)c2)c1Cl` [Compound 1-107], the “Weeding effect … Abutilon theophrasti” value in the assay with Abutilon theophrasti is on record as 5 (Level 5: growth control rate is above 85%). For the same compound, the “Weeding effect … Amaranthus retroflexus L.” value in assay [1] is on record as 5 (Level 5: growth control rate is above 85%). In addition, the “Weeding effect … Chenopodium album” value in the assay with Chenopodium album is 5 (Level 5: growth control rate is above 85%). Moreover, the “Weeding effect … Descurainia sophia” value in the assay with Descurainia sophia is recorded as 5 (Level 5: growth control rate is above 85%).

With `Cn1nnnc1NC(=O)c1ccnc(-c2ccnc(Cl)c2)c1Cl` [Compound 1-151], the “Weeding effect … Abutilon theophrasti” value in the assay on Abutilon theophrasti is reported as 5 (Level 5: growth control rate is above 85%). In addition, in assay [1], the “Weeding effect … Amaranthus retroflexus L.” value is 5 (Level 5: growth control rate is above 85%). The “Weeding effect … Chenopodium album” value with Chenopodium album was 5 (Level 5: growth control rate is above 85%). Moreover, the “Weeding effect … Descurainia sophia” value with Descurainia sophia was 5 (Level 5: growth control rate is above 85%).

On to `Cc1[nH]ncc1-c1nccc(C(=O)Nc2nnnn2C)c1Cl` [Compound 1-171], for which, in the assay with Abutilon theophrasti, the “Weeding effect … Abutilon theophrasti” value is given as 5 (Level 5: growth control rate is above 85%). Moreover, the “Weeding effect … Amaranthus retroflexus L.” value in assay [1] is listed as 5 (Level 5: growth control rate is above 85%). For the same compound, in the assay on Chenopodium album, the “Weeding effect … Chenopodium album” value is 5 (Level 5: growth control rate is above 85%). For the same compound, the “Weeding effect … Descurainia sophia” value in the assay with Descurainia sophia is recorded as 5 (Level 5: growth control rate is above 85%).

With `Cn1nnnc1NC(=O)c1ccnc(-c2ccncc2F)c1Cl` [Compound 1-150], the “Weeding effect … Abutilon theophrasti” value with Abutilon theophrasti is 5 (Level 5: growth control rate is above 85%). The “Weeding effect … Amaranthus retroflexus L.” value in assay [1] is listed as 5 (Level 5: growth control rate is above 85%). Besides, in the assay on Chenopodium album, the “Weeding effect … Chenopodium album” value is reported as 5 (Level 5: growth control rate is above 85%). Besides, in the assay with Descurainia sophia, the “Weeding effect … Descurainia sophia” value is recorded as 5 (Level 5: growth control rate is above 85%).

Consider `CCn1nnnc1NC(=O)c1ccnc(-c2ccc(F)cc2)c1Cl` [Compound 1-307], for which the “Weeding effect … Abutilon theophrasti” value in the assay on Abutilon theophrasti is given as 5 (Level 5: growth control rate is above 85%). For the same compound, in assay [1], the “Weeding effect … Amaranthus retroflexus L.” value is on record as 5 (Level 5: growth control rate is above 85%). Moreover, the “Weeding effect … Chenopodium album” value in the assay with Chenopodium album is 5 (Level 5: growth control rate is above 85%). The “Weeding effect … Descurainia sophia” value in the assay with Descurainia sophia is listed as 5 (Level 5: growth control rate is above 85%).

For the compound `COc1cccc(-c2nccc(C(=O)Nc3nnnn3C)c2Cl)c1` [Compound 1-29], the “Weeding effect … Abutilon theophrasti” value in the assay with Abutilon theophrasti was 5 (Level 5: growth control rate is above 85%). The “Weeding effect … Amaranthus retroflexus L.” value in assay [1] is listed as 5 (Level 5: growth control rate is above 85%). Also, the “Weeding effect … Chenopodium album” value in the assay with Chenopodium album is 5 (Level 5: growth control rate is above 85%). For the same compound, the “Weeding effect … Descurainia sophia” value in the assay with Descurainia sophia is 5 (Level 5: growth control rate is above 85%).

Turning to `Cn1nnnc1NC(=O)c1ccnc(-c2ccc(Cl)nc2Cl)c1Cl` [Compound 1-139], the “Weeding effect … Abutilon theophrasti” value with Abutilon theophrasti was 5 (Level 5: growth control rate is above 85%). In assay [1], the “Weeding effect … Amaranthus retroflexus L.” value is listed as 5 (Level 5: growth control rate is above 85%). In the assay with Chenopodium album, the “Weeding effect … Chenopodium album” value was 5 (Level 5: growth control rate is above 85%). Also, the “Weeding effect … Descurainia sophia” value in the assay with Descurainia sophia is 5 (Level 5: growth control rate is above 85%).

Take `CCCn1cc(-c2nccc(C(=O)Nc3nnnn3C)c2Cl)cn1` [Compound 1-173]: the “Weeding effect … Abutilon theophrasti” value with Abutilon theophrasti is on record as 5 (Level 5: growth control rate is above 85%). Besides, the “Weeding effect … Amaranthus retroflexus L.” value in assay [1] is 5 (Level 5: growth control rate is above 85%). In the assay with Chenopodium album, the “Weeding effect … Chenopodium album” value was 5 (Level 5: growth control rate is above 85%). The “Weeding effect … Descurainia sophia” value with Descurainia sophia is reported as 5 (Level 5: growth control rate is above 85%).

As to `Cn1nnnc1NC(=O)c1ccnc(-c2cc(Cl)cc(Cl)c2)c1Cl` [Compound 1-89], in the assay with Abutilon theophrasti, the “Weeding effect … Abutilon theophrasti” value is 5 (Level 5: growth control rate is above 85%). For the same compound, the “Weeding effect … Amaranthus retroflexus L.” value in assay [1] is 5 (Level 5: growth control rate is above 85%). Besides, in the assay on Chenopodium album, the “Weeding effect … Chenopodium album” value is 5 (Level 5: growth control rate is above 85%). Moreover, the “Weeding effect … Descurainia sophia” value in the assay on Descurainia sophia was 5 (Level 5: growth control rate is above 85%).
